Laboratory results reported in ChEMBL document CHEMBL1201862, “PubChem BioAssay data set” (2004).
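In this assay, cells in 96-well plates receive the compound at five concentrations for 48 hours. Endpoints are linearly interpolated between the surrounding concentrations. GI50 marks 50% less growth.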 Activity calls are given as the source filed them. Rule as the data show it: active = GI50 up to about 1.1 µM and inactive = higher.

Columns and labels:
Test in all cases: NCI tumour cell line growth inhibition, 48 h
SW-620 = test system: SW-620
EKVX = test system: EKVX
HCC 2998 = test system: HCC 2998
U-251 = test system: U-251
MOLT-4 = test system: MOLT-4
MDA-MB-435 = test system: MDA-MB-435
OVCAR-8 = test system: OVCAR-8
LOX IMVI = test system: LOX IMVI
SN12C = test system: SN12C
OVCAR-4 = test system: OVCAR-4
A549 = test system: A549
SF-539 = test system: SF-539
T47D = test system: T47D
ACHN = test system: ACHN
IGROV-1 = test system: IGROV-1
CAKI-1 = test system: CAKI-1
HCT-116 = test system: HCT-116
SK-MEL-2 = test system: SK-MEL-2
NCI/ADR-RES = test system: NCI/ADR-RES
786-0 = test system: 786-0

In the case of `CCC#CCCCCCCCCC(F)C(=O)O` (stereo not given), the GI50 (SW-620) is reported as > 100 µM (inactive), the GI50 (EKVX) is reported as > 100 µM (inactive) and the GI50 (HCC 2998) is reported as > 100 µM (inactive). For the same compound, the GI50 (U-251) was > 100 µM (inactive), the GI50 (MOLT-4) was > 100 µM (inactive) and the GI50 (MDA-MB-435) was > 100 µM (inactive). For the same compound, the GI50 (OVCAR-8) was > 100 µM (inactive), the GI50 (LOX IMVI) was > 100 µM (inactive) and the GI50 (SN12C) was > 100 µM (inactive). For the same compound, the GI50 (OVCAR-4) was > 100 µM (inactive), the GI50 (A549) was > 100 µM (inactive) and the GI50 (SF-539) was > 100 µM (inactive). The GI50 (T47D) was > 100 µM (inactive), the GI50 (ACHN) was > 100 µM (inactive) and the GI50 (IGROV-1) was > 100 µM (inactive). For the same compound, the GI50 (CAKI-1) was > 100 µM (inactive), the GI50 (HCT-116) was > 100 µM (inactive) and the GI50 (SK-MEL-2) was > 100 µM (inactive). For the same compound, the GI50 (NCI/ADR-RES) was > 100 µM (inactive) and the GI50 (786-0) was > 100 µM (inactive).

`Clc1ccc(COC(Cn2ccnc2)c2ccc(Cl)cc2Cl)cc1` (stereo not given) [ECONAZOLE NITRATE] was tested, and the GI50 (SW-620) was 11.3 µM (inactive), the GI50 (EKVX) was 12.1 µM (inactive) and the GI50 (HCC 2998) was 15.6 µM (inactive). For the same compound, the GI50 (U-251) was 12.6 µM (inactive), the GI50 (MOLT-4) was 2.75 µM (inactive) and the GI50 (MDA-MB-435) was 9.68 µM (inactive). For the same compound, the GI50 (OVCAR-8) was 14.8 µM (inactive), the GI50 (LOX IMVI) was 9.57 µM (inactive) and the GI50 (SN12C) was 12.1 µM (inactive). The GI50 (OVCAR-4) was 8.3 µM (inactive), the GI50 (A549) was 9.79 µM (inactive) and the GI50 (SF-539) was 13.6 µM (inactive). The GI50 (T47D) was 5.42 µM (inactive), the GI50 (ACHN) was 12.8 µM (inactive) and the GI50 (IGROV-1) was 12.2 µM (inactive). For the same compound, the GI50 (CAKI-1) was 7.31 µM (inactive), the GI50 (HCT-116) was 6.67 µM (inactive) and the GI50 (SK-MEL-2) was 15 µM (inactive). For the same compound, the GI50 (NCI/ADR-RES) was 5.42 µM (inactive) and the GI50 (786-0) was 12.6 µM (inactive).

With `CCC1(CC)N=C(C(F)(F)F)c2cc(C(=O)C(F)(F)F)c3ccccc3c2N1` the GI50 (SW-620) was 4.78 µM (inactive), the GI50 (EKVX) was 10.2 µM (inactive) and the GI50 (HCC 2998) was 4.39 µM (inactive). For the same compound, the GI50 (U-251) was 3.64 µM (inactive), the GI50 (MOLT-4) was 2.82 µM (inactive) and the GI50 (MDA-MB-435) was 3.58 µM (inactive). The GI50 (OVCAR-8) was 3.66 µM (inactive), the GI50 (LOX IMVI) was 3.64 µM (inactive) and the GI50 (SN12C) was 3.41 µM (inactive). For the same compound, the GI50 (OVCAR-4) was 4.57 µM (inactive), the GI50 (A549) was 9.71 µM (inactive) and the GI50 (SF-539) was 17.9 µM (inactive). The GI50 (T47D) was 3.75 µM (inactive), the GI50 (ACHN) was 4.3 µM (inactive) and the GI50 (IGROV-1) was 3.76 µM (inactive). For the same compound, the GI50 (CAKI-1) was 3.99 µM (inactive), the GI50 (HCT-116) was 3.44 µM (inactive) and the GI50 (SK-MEL-2) was 2.81 µM (inactive). For the same compound, the GI50 (NCI/ADR-RES) was 4.14 µM (inactive) and the GI50 (786-0) was 3.87 µM (inactive).

`COc1ccc(C(=O)O[C@H]2CC[C@@]3(C)[C@@H]4CC[C@H]5[C@]6(O)C[C@H](O)[C@@]7(O)[C@@H](CN8C[C@@H](C)CC[C@H]8[C@@]7(C)O)[C@]6(O)C[C@@]53OC24O)cc1OC` [VERATRIDINE] was tested, and the GI50 (SW-620) was > 100 µM (inactive), the GI50 (EKVX) was > 100 µM (inactive) and the GI50 (HCC 2998) was 46.1 µM (inactive). For the same compound, the GI50 (U-251) was > 100 µM (inactive), the GI50 (MOLT-4) was 95.5 µM (inactive) and the GI50 (MDA-MB-435) was > 100 µM (inactive). For the same compound, the GI50 (OVCAR-8) was > 100 µM (inactive), the GI50 (LOX IMVI) was > 100 µM (inactive) and the GI50 (SN12C) was > 100 µM (inactive). For the same compound, the GI50 (OVCAR-4) was > 100 µM (inactive), the GI50 (A549) was > 100 µM (inactive) and the GI50 (SF-539) was 82 µM (inactive). For the same compound, the GI50 (T47D) was > 100 µM (inactive), the GI50 (ACHN) was > 100 µM (inactive) and the GI50 (IGROV-1) was > 100 µM (inactive). For the same compound, the GI50 (CAKI-1) was > 100 µM (inactive), the GI50 (HCT-116) was > 100 µM (inactive) and the GI50 (SK-MEL-2) was > 100 µM (inactive). The GI50 (NCI/ADR-RES) was > 100 µM (inactive) and the GI50 (786-0) was > 100 µM (inactive).

`Nc1nc(N)c2c3c(cnc2n1)CC(c1ccccc1)CC3` (stereo not given) was tested, and the GI50 (SW-620) was 11.4 µM (inactive), the GI50 (EKVX) was 11.2 µM (inactive) and the GI50 (HCC 2998) was 34 µM (inactive). For the same compound, the GI50 (U-251) was 10.7 µM (inactive), the GI50 (MOLT-4) was 50.5 µM (inactive) and the GI50 (MDA-MB-435) was 6.76 µM (inactive). For the same compound, the GI50 (OVCAR-8) was 7.16 µM (inactive), the GI50 (LOX IMVI) was 1.71 µM (inactive) and the GI50 (SN12C) was 17.3 µM (inactive). For the same compound, the GI50 (OVCAR-4) was 14.3 µM (inactive), the GI50 (A549) was 2.03 µM (inactive) and the GI50 (SF-539) was 14.3 µM (inactive). For the same compound, the GI50 (T47D) was 23.9 µM (inactive), the GI50 (ACHN) was 5 µM (inactive) and the GI50 (IGROV-1) was 0.728 µM (active). For the same compound, the GI50 (CAKI-1) was 28.1 µM (inactive), the GI50 (HCT-116) was 2.86 µM (inactive) and the GI50 (SK-MEL-2) was 32.3 µM (inactive). For the same compound, the GI50 (NCI/ADR-RES) was 20.3 µM (inactive) and the GI50 (786-0) was 7.83 µM (inactive).

In the case of `COC1CC(OC2C(C)OC(OC3C(C)OC(OC4C(C)OC(O[C@H]5CC[C@@]6(C)C(=CC[C@]7(O)[C@@H]6C[C@@H](O)[C@@]6(C)[C@]7(O)CC[C@@]6(O)C(C)=O)C5)CC4OC)CC3OC)CC2OC)OC(C)C1O` (stereo not given in full), the GI50 (SW-620) is reported as > 12.5 µM (inactive), the GI50 (EKVX) is reported as > 12.5 µM (inactive) and the GI50 (HCC 2998) is reported as > 12.5 µM (inactive). For the same compound, the GI50 (U-251) was > 12.5 µM (inactive), the GI50 (MOLT-4) was > 12.5 µM (inactive) and the GI50 (MDA-MB-435) was > 12.5 µM (inactive). The GI50 (OVCAR-8) was > 12.5 µM (inactive), the GI50 (LOX IMVI) was > 12.5 µM (inactive) and the GI50 (SN12C) was > 12.5 µM (inactive). For the same compound, the GI50 (OVCAR-4) was > 12.5 µM (inactive), the GI50 (A549) was > 12.5 µM (inactive) and the GI50 (SF-539) was > 12.5 µM (inactive). The GI50 (T47D) was > 12.5 µM (inactive), the GI50 (ACHN) was > 12.5 µM (inactive) and the GI50 (IGROV-1) was > 12.5 µM (inactive). The GI50 (CAKI-1) was > 12.5 µM (inactive), the GI50 (HCT-116) was > 12.5 µM (inactive) and the GI50 (SK-MEL-2) was > 12.5 µM (inactive). For the same compound, the GI50 (NCI/ADR-RES) was > 12.5 µM (inactive) and the GI50 (786-0) was > 12.5 µM (inactive).
